The results in this text go back to the supplement of paper PMC10307832.

What all share (assay): relative viability (nuclei count vs DMSO), 5 days (fraction); higher = more cells survive
Compound in test [1]: C[C@@H](C(=O)N[C@@H](C1CCCCC1)C(=O)N2CCC[C@H]2C(=O)N[C@@H]3[C@@H](CC4=CC=CC=C34)OCC#CC#CCO[C@@H]5CC6=CC=CC=C6[C@@H]5NC(=O)[C@@H]7CCCN7C(=O)[C@H](C8CCCCC8)NC(=O)[C@H](C)NC)NC [AZD5582] + C[C@]1(O)C[C@@H](c2nc(-c3ccc4ccc(-c5ccccc5)nc4c3)c3c(N)nccn32)C1 [Linsitinib] (partner 1 µM)
In outline:
(§1)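 Relative viability is defined as nuclei in treated wells over nuclei in vehicle wells. Duplicate plates were run and medians reported. Lung cancer cell lines in 1536-well plates were dosed by pin tool one day after seeding, with one drug or with a fixed anchor-drug dose plus five library-drug doses (not always all listed) in √10 steps, and nuclei were counted after 5 days.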

Compound in test [2]: C[C@@H](C(=O)N[C@@H](C1CCCCC1)C(=O)N2CCC[C@H]2C(=O)N[C@@H]3[C@@H](CC4=CC=CC=C34)OCC#CC#CCO[C@@H]5CC6=CC=CC=C6[C@@H]5NC(=O)[C@@H]7CCCN7C(=O)[C@H](C8CCCCC8)NC(=O)[C@H](C)NC)NC [AZD5582] + CC1(C)CCC(c2ccc(Cl)cc2)=C(CN2CCN(c3ccc(C(=O)NS(=O)(=O)c4ccc(N[C@H](CCN5CCOCC5)CSc5ccccc5)c(S(=O)(=O)C(F)(F)F)c4)cc3)CC2)C1 [Navitoclax] (partner 0.5 µM)
In outline:
as §1

Compound in test [3]: C[C@@H](C(=O)N[C@@H](C1CCCCC1)C(=O)N2CCC[C@H]2C(=O)N[C@@H]3[C@@H](CC4=CC=CC=C34)OCC#CC#CCO[C@@H]5CC6=CC=CC=C6[C@@H]5NC(=O)[C@@H]7CCCN7C(=O)[C@H](C8CCCCC8)NC(=O)[C@H](C)NC)NC [AZD5582] + Cc1nc(Nc2ncc(C(=O)Nc3c(C)cccc3Cl)s2)cc(N2CCN(CCO)CC2)n1 [Dasatinib] (partner 0.075 µM)
In outline: as §1

Compound in test [4]: C[C@@H](C(=O)N[C@@H](C1CCCCC1)C(=O)N2CCC[C@H]2C(=O)N[C@@H]3[C@@H](CC4=CC=CC=C34)OCC#CC#CCO[C@@H]5CC6=CC=CC=C6[C@@H]5NC(=O)[C@@H]7CCCN7C(=O)[C@H](C8CCCCC8)NC(=O)[C@H](C)NC)NC [AZD5582] + CC(=O)Nc1cccc(-n2c(=O)n(C3CC3)c(=O)c3c(Nc4ccc(I)cc4F)n(C)c(=O)c(C)c32)c1 [Trametinib] (partner 0.02 µM)
In outline:
as §1

Compound in test [5]: C[C@@H](C(=O)N[C@@H](C1CCCCC1)C(=O)N2CCC[C@H]2C(=O)N[C@@H]3[C@@H](CC4=CC=CC=C34)OCC#CC#CCO[C@@H]5CC6=CC=CC=C6[C@@H]5NC(=O)[C@@H]7CCCN7C(=O)[C@H](C8CCCCC8)NC(=O)[C@H](C)NC)NC [AZD5582] + CC(=O)c1c(C)c2cnc(Nc3ccc(N4CCNCC4)cn3)nc2n(C2CCCC2)c1=O [Palbociclib] (partner 0.5 µM)
In outline: as §1

With Calu-6, the relative viability in test [1] (first compound 0.001581 µM) was 0.811; in test [1] (first compound 0.01581 µM) it was 0.985; in test [1] (first compound 0.05 µM) it was 0.768; in test [2] (first compound 0.001581 µM) it was 0.718; in test [2] (first compound 0.005 µM), 0.635; in test [2] (first compound 0.01581 µM) it was 0.871. The relative viability in test [2] (first compound 0.05 µM) came out at 0.467.

Regarding IA-LM, the relative viability in test [1] (first compound 0.001581 µM) stood at 0.5; in test [1] (first compound 0.005 µM) it was 0.479; in test [1] (first compound 0.01581 µM), 0.64; in test [1] (first compound 0.05 µM), 0.599; in test [2] (first compound 0.001581 µM) it was 0.499; in test [2] (first compound 0.005 µM), 0.538. Besides, the relative viability in test [2] (first compound 0.01581 µM) was found to be 0.951; in test [2] (first compound 0.05 µM), 0.714.

In the case of NCI-H2170, the relative viability in test [3] (first compound 0.001581 µM) came to 0.494; in test [3] (first compound 0.005 µM), 0.571; in test [3] (first compound 0.01581 µM), 0.558; in test [3] (first compound 0.05 µM), 0.471; in test [4] (first compound 0.001581 µM), 0.904; in test [4] (first compound 0.005 µM), 0.825. The relative viability was 0.861 in test [4] (first compound 0.01581 µM); 1.03 in test [4] (first compound 0.05 µM); 0.37 in test [5] (first compound 0.001581 µM); 0.388 in test [5] (first compound 0.005 µM); 0.364 in test [5] (first compound 0.01581 µM); 0.492 in test [5] (first compound 0.05 µM). Also, the relative viability in test [2] (first compound 0.001581 µM) was 0.551; in test [2] (first compound 0.005 µM), 0.624; in test [2] (first compound 0.01581 µM) it was 0.624; in test [2] (first compound 0.05 µM) it was 0.758.

As to NCI-H661, the relative viability amounted to 0.469 in test [1] (first compound 0.001581 µM); 0.552 in test [1] (first compound 0.005 µM); 0.58 in test [1] (first compound 0.01581 µM); 0.682 in test [1] (first compound 0.05 µM); 0.866 in test [3] (first compound 0.001581 µM); 1.15 in test [3] (first compound 0.005 µM). Also, the relative viability was found to be 0.908 in test [3] (first compound 0.01581 µM); 0.873 in test [3] (first compound 0.05 µM); 0.524 in test [4] (first compound 0.001581 µM); 0.697 in test [4] (first compound 0.005 µM); 0.589 in test [4] (first compound 0.01581 µM); 0.648 in test [4] (first compound 0.05 µM). In addition, the relative viability in test [5] (first compound 0.001581 µM) was 0.403; in test [5] (first compound 0.005 µM), 0.44; in test [5] (first compound 0.01581 µM) it was 0.464; in test [5] (first compound 0.05 µM), 0.429.

For the cell line NCI-H650, the relative viability in test [1] (first compound 0.001581 µM) was 0.649; in test [1] (first compound 0.005 µM), 0.758; in test [1] (first compound 0.01581 µM) it was 0.431; in test [1] (first compound 0.05 µM) it was 0.564; in test [3] (first compound 0.001581 µM), 0.447; in test [3] (first compound 0.005 µM), 0.418. In addition, the relative viability turned out to be 0.305 in test [3] (first compound 0.01581 µM); 0.308 in test [3] (first compound 0.05 µM); 0.919 in test [4] (first compound 0.001581 µM); 1.05 in test [4] (first compound 0.005 µM); 0.987 in test [4] (first compound 0.01581 µM); 0.944 in test [4] (first compound 0.05 µM). The relative viability in test [5] (first compound 0.001581 µM) amounted to 0.328; in test [5] (first compound 0.005 µM) it was 0.287; in test [5] (first compound 0.01581 µM), 0.255; in test [5] (first compound 0.05 µM), 0.245.
